From paper PMC11219860, “A chemogenetic approach for dopamine imaging with tunable sensitivity” (Nature Communications, 2024)

Assays:
NAc DRD1-MSNs = assay: Footshock-induced NAc DRD1-MSN activity (jGCaMP8m photometry); details: DETQ 10 mg/kg; SCH-23390 0.1 mg/kg i.p.
Protocol: Cue-reward paradigm (NAc recordings) was carried out in an operant chamber within a sound-attenuating box with low red light illumination (30 Lux). […] During the next session mice were trained to initiate reward delivery via licking. […] During expert sessions CS-US pairings were repeated 20 times per session ( ~ 30 min for each session). Mice underwent a total of 12 sessions for cue-reward learning. 10 minutes before each session drugs were injected i.p. […] The rewards were delivered from 10 to 40 min post vehicle or DETQ injection. Chambers and lick ports were sanitized with ethanol between mice. For all sessions, lick data and photometry recordings were simultaneously obtained; licking behaviour was detected by a capacity-based sensor. Latency to reward-anticipatory licking was calculated as the time between the CS and lick onset. The lick proportion was calculated as the percent time mice spent licking during CS presentation divided by the percent time mice spent licking during the rest of the session (without CS). […] Fiber photometry recordings were analyzed using custom-written Matlab scripts. […] Change in fluorescence, ΔF/F0 (%), was defined as (F-F0)/F0 x 100, where F represents the fluorescent signal (465-nm) at each time point. F0 was calculated by applying a least-squares linear fit (polyfit) to the 405-nm signal to align with the 465-nm signal. […]

[1] = biological target: T1, mouse DA transporter (DAT) (Mus musculus, UniProt Q61327); assay: Fast-scan cyclic voltammetry of DA release in striatal slices; details: bath application: DETQ 200 nM; cocaine 5 µM
T1 construct: Lack of DETQ effect on the endogenous DA transporter; from tissue; host or cells: mouse striatal brain slices
T1 sequence (Q61327 whole entry): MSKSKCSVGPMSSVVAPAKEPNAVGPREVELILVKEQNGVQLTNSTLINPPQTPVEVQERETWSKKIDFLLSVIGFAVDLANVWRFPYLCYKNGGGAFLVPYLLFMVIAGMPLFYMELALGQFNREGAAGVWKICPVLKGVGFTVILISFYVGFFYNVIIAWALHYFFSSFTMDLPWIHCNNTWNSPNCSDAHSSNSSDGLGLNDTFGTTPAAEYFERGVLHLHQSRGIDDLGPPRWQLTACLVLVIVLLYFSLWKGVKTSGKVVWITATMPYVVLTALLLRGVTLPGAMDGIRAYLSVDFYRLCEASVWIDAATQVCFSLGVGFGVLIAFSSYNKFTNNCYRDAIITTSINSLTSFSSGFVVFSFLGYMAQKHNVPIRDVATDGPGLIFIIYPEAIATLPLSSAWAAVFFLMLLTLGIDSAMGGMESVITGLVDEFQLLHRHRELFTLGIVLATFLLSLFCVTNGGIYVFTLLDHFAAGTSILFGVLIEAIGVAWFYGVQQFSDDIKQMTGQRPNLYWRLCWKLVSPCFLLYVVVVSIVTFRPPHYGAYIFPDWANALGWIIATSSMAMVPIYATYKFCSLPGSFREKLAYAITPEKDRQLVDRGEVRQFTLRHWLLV
Protocol: Striatal DA release was measured using fast-scan cyclic voltammetry (FSCV) with a carbon fiber electrode (CFE; diameter 7 µm, length 50–100 µm) positioned approximately 100 µm below the surface of the slice. The CFE was scanned across a triangular waveform (−0.4 to +1.3 V, 400 V/s) at 10 Hz, and DA release was evoked by single-pulse electrical stimulation (30 µA, 0.5 ms) with an inter-stimulus interval of 180 s. DA release was evoked in the presence of DHBE (1 µM) to block nicotinic acetylcholine receptors. Peak background-subtracted DA oxidation current was measured at +0.6 V, and drugs were washed on after establishing a stable baseline.

ms5HT6 = biological target: T2, ms5HT6 (Mus musculus, UniProt Q9R1C8); assay: NanoBit complementation assay of mini-Gs recruitment; type: cell-based
T2 construct: expressed in transfected cells; host or cells: HEK293T
T2 sequence (Q9R1C8 whole entry): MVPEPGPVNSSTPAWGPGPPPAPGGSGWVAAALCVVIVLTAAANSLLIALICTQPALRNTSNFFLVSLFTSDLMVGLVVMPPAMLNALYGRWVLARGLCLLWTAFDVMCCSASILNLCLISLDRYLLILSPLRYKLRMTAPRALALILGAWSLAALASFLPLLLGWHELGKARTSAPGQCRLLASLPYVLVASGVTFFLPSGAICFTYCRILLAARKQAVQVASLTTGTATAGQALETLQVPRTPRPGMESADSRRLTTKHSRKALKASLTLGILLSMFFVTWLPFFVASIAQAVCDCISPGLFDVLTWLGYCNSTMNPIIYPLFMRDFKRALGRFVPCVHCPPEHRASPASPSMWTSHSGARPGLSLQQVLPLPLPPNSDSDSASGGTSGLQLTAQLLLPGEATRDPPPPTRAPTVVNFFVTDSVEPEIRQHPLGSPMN
Protocol: (§1) To measure the effect of DETQ on mini-G protein recruitment by different GPCRs we used a Nanoluciferase (NanoBit)-based complementation assay[26],[27]. For this HEK293T cells were seeded in six-well plates (Techno Plastic Products) at a density of 300,000 cells per well and co-transfected with plasmids encoding either hmDRD1, msDRD1, msDRD2, msDRD5, msADRA1a, msβ2AR or ms5HT6 carrying a C-terminally fused SmBiT, in combination with the corresponding mini-G protein probe[78] (mini-Gs: for DRD1, DRD5, β2AR, 5HT6R; mini-Gq: for ADRA1a; or mini-Gi: for DRD2), which were N-terminally fused to LgBiT, in a 1:1 DNA ratio using Effectene transfection reagent (Qiagen). 24 h after transfection cells were detached using Versene (ThermoFisher Scientific), washed, centrifuged (RT, 150 g, 3 min), and resuspended (0.5 × 10^6 cells ml^−1) in Fluorobrite DMEM (ThermoFisher Scientific) complemented with 30 mM HEPES (ThermoFisher Scientific). First, 95 µl of the cell suspension were added into each well of a white flat-bottom 96-well OptiPlate (PerkinElmer), then 25 µl of a 20-fold dilution of Nano-Glo reagent in LCS buffer (Promega) and last either 5 ul of pure Fluorobrite-DMEM or 5 ul of DETQ diluted in Fluorobrite DMEM (final concentration 100 nM for DRD1; 1 µM for all other receptors). The plate was incubated at 37 °C for 30 min, before the luminescence signal was measured at 37 °C using a Tecan Spark plate reader before and after the manual addition of 25 µl of either ligand solution (final concentrations ranging from 1 nM to 100 µM), pure Fluorobrite-DMEM or 25 µl of a DETQ solution (1 µM final concentration).
(§2) For in vitro luminescence assays, ligand traces were divided by buffer traces, the area under the curve for each trace was calculated using GraphPad Prism, values were normalized and fitted as dose response curve. The change in luminescence (∆L/L0) upon addition of different ligands was calculated as follows: (Lt – L0)/L0, with Lt being the Luminescence at ten timepoints t immediately after ligand application, and L0 being the luminescence of ten timepoints before ligand application. The statistical significance was determined using Welch’s ANOVA followed by Dunnett’s multiple comparison test (comparison of ligand or vehicle to ligand). For ex vivo imaging experiments, statistical analyses were performed in Prism (GraphPad) using independent samples t-test or nonparametric Mann-Whitney U-test when assumption of normality was violated (assessed using Schapiro-Wilk’s test). Curve fitting parameters were compared by extra sum-of-squares F test. For in vivo imaging experiments, statistical tests were paired and unpaired t-tests (two-tailed) and repeated-measures ANOVA for parametric data, while they were Wilcoxon rank sum tests or Mann-Whitney for non-parametric data. Sidak or Tukey post-hoc tests correcting for multiple comparisons were used in the case of significant interactions in ANOVA. All p-values are indicated in the Results section. […] No statistical methods were used to predetermine sample size. No data were excluded from the analyses. Group allocations used in this study were randomly assigned to animals and/or cultured cells. The Investigators were not blinded to allocation during experiments and outcome assessment.

msβ2AR = biological target: T3, msβ2AR (Mus musculus, UniProt P18762); assay: as above; type: cell-based
T3 construct: expressed in transfected cells; host or cells: HEK293T
T3 sequence (P18762 whole entry): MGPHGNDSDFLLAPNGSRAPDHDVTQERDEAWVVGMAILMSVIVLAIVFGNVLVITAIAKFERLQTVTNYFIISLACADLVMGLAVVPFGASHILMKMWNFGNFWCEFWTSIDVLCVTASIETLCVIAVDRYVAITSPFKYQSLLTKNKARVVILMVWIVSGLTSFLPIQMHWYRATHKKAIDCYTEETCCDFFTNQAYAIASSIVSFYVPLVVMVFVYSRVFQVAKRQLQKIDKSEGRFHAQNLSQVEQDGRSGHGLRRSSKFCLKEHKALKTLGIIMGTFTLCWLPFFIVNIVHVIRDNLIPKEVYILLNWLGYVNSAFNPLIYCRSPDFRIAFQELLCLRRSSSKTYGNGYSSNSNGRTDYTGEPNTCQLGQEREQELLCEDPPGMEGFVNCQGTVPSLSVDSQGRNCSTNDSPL
Protocol: as §1, §2

msDRD1 = biological target: T4, msDRD1 (Mus musculus, UniProt Q61616); assay: as above; type: cell-based
T4 construct: expressed in transfected cells; host or cells: HEK293T
T4 sequence (Q61616 whole entry): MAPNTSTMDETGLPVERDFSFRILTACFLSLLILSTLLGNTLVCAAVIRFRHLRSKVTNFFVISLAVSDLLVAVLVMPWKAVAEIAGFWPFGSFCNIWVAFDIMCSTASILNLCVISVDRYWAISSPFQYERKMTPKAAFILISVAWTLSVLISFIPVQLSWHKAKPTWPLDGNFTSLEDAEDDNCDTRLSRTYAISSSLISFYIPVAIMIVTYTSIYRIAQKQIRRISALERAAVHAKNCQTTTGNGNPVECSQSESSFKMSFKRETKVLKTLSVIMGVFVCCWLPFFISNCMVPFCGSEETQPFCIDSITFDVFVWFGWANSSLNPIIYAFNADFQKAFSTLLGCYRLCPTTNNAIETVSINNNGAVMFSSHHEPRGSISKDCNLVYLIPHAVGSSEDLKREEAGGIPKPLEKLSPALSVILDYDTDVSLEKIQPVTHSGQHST
Protocol: as §1, §2

hmDRD1 = hmDRD1 (Homo sapiens, UniProt P21728); assay: as above; type: cell-based
Chain of hmDRD1 (P21728 whole entry): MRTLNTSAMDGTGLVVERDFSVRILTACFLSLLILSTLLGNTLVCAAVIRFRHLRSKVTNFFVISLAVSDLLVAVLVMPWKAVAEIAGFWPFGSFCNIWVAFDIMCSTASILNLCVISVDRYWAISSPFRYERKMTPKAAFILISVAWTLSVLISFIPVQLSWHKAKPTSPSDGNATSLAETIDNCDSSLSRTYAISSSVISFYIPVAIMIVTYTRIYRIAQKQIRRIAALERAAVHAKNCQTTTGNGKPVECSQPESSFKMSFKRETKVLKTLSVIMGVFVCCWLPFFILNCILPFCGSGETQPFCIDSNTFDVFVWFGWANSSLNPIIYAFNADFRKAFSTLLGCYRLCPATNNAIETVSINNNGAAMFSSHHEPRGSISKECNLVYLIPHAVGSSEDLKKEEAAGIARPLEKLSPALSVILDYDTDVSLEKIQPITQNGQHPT
Protocol: as §1, §2

msDRD5 = biological target: T5, msDRD5 (Mus musculus, UniProt Q8BLD9); assay: as above; type: cell-based
T5 construct: expressed in transfected cells; host or cells: HEK293T
T5 sequence (Q8BLD9 whole entry): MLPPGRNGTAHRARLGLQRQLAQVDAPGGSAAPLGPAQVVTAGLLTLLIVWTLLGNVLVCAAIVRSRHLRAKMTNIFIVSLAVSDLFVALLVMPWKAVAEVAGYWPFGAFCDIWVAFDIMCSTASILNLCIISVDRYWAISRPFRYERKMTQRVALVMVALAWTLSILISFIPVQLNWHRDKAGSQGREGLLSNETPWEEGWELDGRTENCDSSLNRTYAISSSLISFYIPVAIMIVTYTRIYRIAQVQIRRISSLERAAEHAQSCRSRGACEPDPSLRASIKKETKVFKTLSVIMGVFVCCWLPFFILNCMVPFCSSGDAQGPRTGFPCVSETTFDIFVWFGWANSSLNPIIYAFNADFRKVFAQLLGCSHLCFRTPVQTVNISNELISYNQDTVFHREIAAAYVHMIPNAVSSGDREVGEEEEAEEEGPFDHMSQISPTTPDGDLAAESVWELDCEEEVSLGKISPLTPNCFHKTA
Protocol: as §1, §2

dLight1.3b = assay: In vivo single-fiber photometry of dLight1.3b baseline in freely-moving mice; set-up: species or system mouse; details: DETQ 10 mg/kg i.p.
Protocol: For combined locomotion/photometry experiments in the open field (OF) in tethered mice, a 50 × 50 cm arena was used. Fiber photometry was conducted using a Doric photometry rig combined with a filter/mirror minicube set (Doric Lenses), as above. […] Data were sampled at 122 Hz. […] Mice were habituated to the chamber for 3 consecutive days (30 minutes per day). On experimental days, locomotor activity was video recorded and synchronized with fiber photometry signal recording. […] The OF chamber was cleaned with ethanol and water between mice. Recording sessions were repeated at 48 hours intervals. Mouse behavior as well as photometry signals were analyzed with a custom-written MATLAB script. Mouse locomotion was computed using the body center point of the animal. The center zone of the arena was defined automatically during behavior data analysis as the 25 × 25 cm square with the central point aligned to the center of the open field. […] Videos were recorded with a Logitech C270 camera and analyzed with DeepLabCut (version 2.1.8.2)[84] on an existing open field network. Representative traces were generated with the Anymaze (v7.2) software (Stoelting Co.).

## C[C@H]1c2cccc(C(C)(C)O)c2C[C@H](CO)N1C(=O)Cc1c(Cl)cccc1Cl [DETQ, 2-(2,6-dichlorophenyl)-1-((1S,3R)-3-(hydroxymethyl)-5-(2-hydroxypropan-2-yl)-1-methyl-3,4-dihydroisoquinolin-2(1H)-yl)ethan-1-one]
NAc DRD1-MSNs
  footshock-induced activity in NAc DRD1-MSNs: remained unaffected
[1]
  decay constant (tau) of DA signals: no effect
  peak DA release: no effect
ms5HT6; DETQ 1 µM alone
  agonist mode: direct agonist effect: no direct agonist effect
ms5HT6; DETQ 1 µM, 5HT
  allosteric modulator mode: effect on agonist dose-response: No allosteric effect
msβ2AR; DETQ 1 µM alone
  agonist mode: direct agonist effect: no direct agonist effect
msβ2AR; DETQ 1 µM, NE
  allosteric modulator mode: effect on agonist dose-response: No allosteric effect
msDRD1; DETQ 100 nM
  allosteric modulator mode: potentiation of mini-Gs recruitment during DA titration: potentiation of mini-Gs recruitment only in the case of the hmDRD1
msDRD1; DETQ 1 µM alone
  agonist mode: direct agonist effect: no direct agonist effect
hmDRD1; DETQ 100 nM
  allosteric modulator mode: potentiation of mini-Gs recruitment during DA titration: strong and significant potentiation
hmDRD1; DETQ 1 µM alone
  agonist mode: direct agonist effect: no direct agonist effect
msDRD5; DETQ 1 µM alone
  agonist mode: direct agonist effect: no direct agonist effect
msDRD5; DETQ 1 µM, DA
  allosteric modulator mode: effect on agonist dose-response: No allosteric effect
dLight1.3b; NAc
  increase in sensor baseline: 15–20 % ∆F/F0
dLight1.3b; PFC
  increase in sensor baseline: 2–4 % ∆F/F0
